The compounds below were run against hSTING(R232) (Homo sapiens, UniProt Q86WV6, H232R) (assay: Luciferase reporter assay in HEK293T-hSTING-Luciferase cells, R232 (wild type) human STING). Conditions: 20 hr stimulation, read-out: R232 human activity (EC50 range).
Type: cell-based
Summary of the method: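 Clonal HEK293T cells stably expressing STING from a pUNO-1 plasmid plus an ISRE/ISG54-driven secreted luciferase reporter; 5×10^5 cells stimulated with compound for 20 hr. Supernatant luciferase read by luminescence, giving fold-induction over baseline and EC50.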

hSTING(R232), sequence (Q86WV6 whole entry H232R): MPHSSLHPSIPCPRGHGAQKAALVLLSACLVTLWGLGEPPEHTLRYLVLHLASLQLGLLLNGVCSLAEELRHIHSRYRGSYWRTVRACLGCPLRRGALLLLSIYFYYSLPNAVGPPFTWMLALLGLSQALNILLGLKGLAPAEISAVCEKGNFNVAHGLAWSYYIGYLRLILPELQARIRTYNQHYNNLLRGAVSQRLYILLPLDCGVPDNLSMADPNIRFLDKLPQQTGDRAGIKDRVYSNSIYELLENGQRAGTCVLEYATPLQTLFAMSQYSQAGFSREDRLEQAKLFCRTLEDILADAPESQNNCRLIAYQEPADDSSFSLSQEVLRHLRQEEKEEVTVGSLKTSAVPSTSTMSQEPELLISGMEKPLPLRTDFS

Row | Compound | EC50
1 | CN1Cc2ccc(C(=O)NCc3ccc4c(c3)CC(=O)N4)cc2N(Cc2c(F)cccc2Cl)C1=O [Example 59, 1-(2-chloro-6-fluorobenzyl)-3-methyl-2-oxo-N-((2-oxoindolin-5-yl)methyl)-1,2,3,4-tetrahydroquinazoline-7-carboxamide] | > 10 µM
2 | CC1c2ccc(C(=O)NCc3c(F)cc(F)cc3F)cc2N(Cc2ccccc2)C(=O)N1C (centres unmarked) [Example 190, 1-benzyl-3,4-dimethyl-2-oxo-N-(2,4,6-trifluorobenzyl)-1,2,3,4-tetrahydroquinazoline-7-carboxamide] | < 1 µM
3 | CC1c2ccc(C(=O)NCc3c(F)cc(F)cc3F)cc2N(Cc2cc(F)cc(F)c2)C(=O)N1C (centres unmarked) [Example 152, 1-(3,5-difluorobenzyl)-3,4-dimethyl-2-oxo-N-(2,4,6-trifluorobenzyl)-1,2,3,4-tetrahydroquinazoline-7-carboxamide] | < 1 µM
4 | Cc1cc(CN2C(=O)N(C)C(C)c3ccc(C(=O)NCc4c(F)cc(F)cc4F)cc32)on1 (centres unmarked) [Example 199, 3,4-dimethyl-1-((3-methylisoxazol-5-yl)methyl)-2-oxo-N-(2,4,6-triflurobenzyl)-1,2,3,4-tetrahydroquinazoline-7-carboxamide] | > 10 µM
5 | CN1Cc2ccc(C(=O)NCc3c(F)cc(F)cc3F)cc2N(Cc2cn(C)cn2)C1=O [Example 37, 3-methyl-1-((1-methyl-1H-imidazol-4-yl)methyl)-2-oxo-N-(2,4,6-trifluorobenzyl)-1,2,3,4-tetrahydroquinazoline-7-carboxamide] | > 10 µM
6 | C[C@H]1c2ccc(C(=O)NCc3c(F)cc(F)cc3F)cc2N(Cc2c(F)cccc2NCCCO)C(=O)N1C [Example 278, (S)-1-(2-fluoro-6-((3-hydroxypropyl)amino)benzyl)-3,4-dimethyl-2-oxo-N-(2,4,6-trifluorobenzyl)-1,2,3,4-tetrahydroquinazoline-7-carboxamide] | < 1 µM
7 | CC1c2ccc(C(=O)NCc3c(F)cc(F)cc3F)cc2N(Cc2ccccc2F)C(=O)N1C (centres unmarked) [Example 201, 1-(2-fluorobenzyl)-3,4-dimethyl-2-oxo-N-(2,4,6-trifluorobenzyl)-1,2,3,4-tetrahydroquinazoline-7-carboxamide] | < 1 µM
8 | CN1Cc2ccc(C(=O)NCc3c(F)cc(F)cc3F)cc2N(Cc2cc(C3CC3)no2)C1=O [Example 64, 1-((3-cyclopropylisoxazol-5-yl)methyl)-3-methyl-2-oxo-N-(2,4,6-trifluorobenzyl)-1,2,3,4-tetrahydroquinazoline-7-carboxamide] | > 10 µM
9 | CC1c2ccc(C(=O)NCc3c(F)cc(F)cc3F)cc2N(Cc2c(F)cccc2OCCO)C(=O)N1C (centres unmarked) [Example 236, 1-(2-fluoro-6-(2-hydroxyethoxy)benzyl)-3,4-dimethyl-2-oxo-N-(2,4,6-trifluorobenzyl)-1,2,3,4-tetrahydroquinazoline-7-carboxamide] | < 1 µM
10 | C[C@H]1c2ccc(C(=O)NCc3c(F)cc(F)cc3F)cc2N(Cc2ccc(OP(=O)(O)O)cc2F)C(=O)N1C [Example 92, (S)-4-((3,4-dimethyl-2-oxo-7-((2,4,6-trifluorobenzyl)carbamoyl)-3,4-dihydroquinazolin-1(2H)-yl)methyl)-3-fluorophenyl dihydrogen phosphate] | < 1 µM
11 | CN1Cc2ccc(C(=O)NCc3c(F)cc(F)cc3F)cc2N(Cc2c(F)cccc2Cl)C1=O [Example 5, 1-(2-chloro-6-fluorobenzyl)-3-methyl-2-oxo-N-(2,4,6-trifluorobenzyl)-1,2,3,4-tetrahydroquinazoline-7-carboxamide] | < 1 µM
12 | CC1c2ccc(C(=O)NCc3c(F)cc(F)cc3F)cc2N(Cc2c(F)cc(F)cc2OC(F)(F)F)C(=O)N1C (centres unmarked) [Example 210, 1-(2,4-difluoro-6-(trifluoromethoxy)benzyl)-3,4-dimethyl-2-oxo-N-(2,4,6-trifluorobenzyl)-1,2,3,4-tetrahydroquinazoline-7-carboxamide] | < 1 µM
13 | CN1Cc2ccc(C(=O)NCc3c(F)cc(F)cc3F)cc2N(Cc2c(Cl)cccc2Cl)C1=O [Example 62, l-(2,6-dichlorobenzyl)-3-methyl-2-oxo-N-(2,4,6-trifluorobenzyl)-1,2,3,4-tetrahydroquinazoline-7-carboxamide] | 1 to 10 µM
14 | Cn1cnc(N2Cc3ccc(C(=O)NCc4c(F)cc(F)cc4F)cc3N(Cc3c(F)cccc3Cl)C2=O)c1 [Example 34, 1-(2-chloro-6-fluorobenzyl)-3-(1-methyl-1H-imidazol-4-yl)-2-oxo-N-(2,4,6-trifluorobenzyl)-1,2,3,4-tetrahydroquinazoline-7-carboxamide] | > 10 µM

Next, values leading:

Row | EC50 | Compound
15 | 1 to 10 µM | C[C@H]1c2ccc(C(=O)NCc3c(O)cccc3F)cc2N(Cc2c(F)cccc2Cl)C(=O)N1C [Example 251, (S)-1-(2-chloro-6-fluorobenzyl)-N-(2-fluoro-6-hydroxybenzyl)-3,4-dimethyl-2-oxo-1,2,3,4-tetrahydroquinazoline-7-carboxamide]
16 | > 10 µM | O=C(NCc1c(F)cc(F)cc1F)c1ccc2c(c1)N(Cc1c(F)cccc1Cl)C(=O)N(OCc1ccccc1)C2 [Example 68, 3-(benzyloxy)-1-(2-chloro-6-fluorobenzyl)-2-oxo-N-(2,4,6-trifluorobenzyl)-1,2,3,4-tetrahydroquinazoline-7-carboxamide]
17 | > 10 µM | CN1Cc2ccc(C(=O)NCc3ccc4cnn(C)c4c3)cc2N(Cc2c(F)cccc2Cl)C1=O [Example 51, 1-(2-chloro-6-fluorobenzyl)-3-methyl-N-((1-methyl-1H-indazol-6-yl)methyl)-2-oxo-1,2,3,4-tetrahydroquinazoline-7-carboxamide]
18 | < 1 µM | C[C@H]1c2ccc(C(=O)NCc3cc(O)cc(F)c3)cc2N(Cc2c(F)cccc2Cl)C(=O)N1C [Example 250, (S)-1-(2-chloro-6-fluorobenzyl)-N-(3-fluoro-5-hydroxybenzyl)-3,4-dimethyl-2-oxo-1,2,3,4-tetrahydroquinazoline-7-carboxamide]
19 | 1 to 10 µM | COc1cccc(CN2C(=O)N(C)Cc3ccc(C(=O)NCc4c(F)cc(F)cc4F)cc32)c1F [Example 63, 1-(2-fluoro-3-methoxybenzyl)-3-methyl-2-oxo-N-(2,4,6-trifluorobenzyl)-1,2,3,4-tetrahydroquinazoline-7-carboxamide]
20 | 1 to 10 µM | CN1Cc2ccc(C(=O)NCc3cc4ccc(F)cc4o3)cc2N(Cc2c(F)cccc2Cl)C1=O [Example 23, 1-(2-chloro-6-fluorobenzyl)-N-((6-fluorobenzofuran-2-yl)methyl)-3-methyl-2-oxo-1,2,3,4-tetrahydroquinazoline-7-carboxamide]
21 | > 10 µM | COc1ccc2cc(CNC(=O)c3ccc4c(c3)N(Cc3c(F)cccc3Cl)C(=O)N(C)C4)oc2c1 [Example 22, 1-(2-chloro-6-fluorobenzyl)-N-((6-methoxybenzofuran-2-yl)methyl)-3-methyl-2-oxo-1,2,3,4-tetrahydroquinazoline-7-carboxamide]
22 | 1 to 10 µM | CC1c2ccc(C(=O)NCc3c(F)cc(F)cc3F)cc2N(Cc2c(F)cccc2NS(C)(=O)=O)C(=O)N1C (centres unmarked) [Example 225, 1-(2-fluoro-6-(methylsulfonamido)benzyl)-3,4-dimethyl-2-oxo-N-(2,4,6-trifluorobenzyl)-1,2,3,4-tetrahydroquinazoline-7-carboxamide]
23 | < 1 µM | Cc1ccc(CN2C(=O)N(C)[C@@H](C)c3ccc(C(=O)NCc4c(F)cc(F)cc4F)cc32)c(F)c1 [Example 170, (S)-1-(2-fluoro-4-methylbenzyl)-3,4-dimethyl-2-oxo-N-(2,4,6-trifluorobenzyl)-1,2,3,4-tetrahydroquinazoline-7-carboxamide]

Reference: patent publication US11571423B2, “Small molecule modulators of human sting” (Curadev Pharma Limited, priority 2017, dated 2023)
